Data from US20130123326A1, “ALLOSTERIC BINDING COMPOUNDS” (REGION MIDTJYLLAND, priority 2009, published 2013).
Where two headings read alike, the source gives them in different places.

Legend:
hSERT = hSERT (Homo sapiens, UniProt P31645); experiment: Dissociation assay with [3H]-citalopram and hSERT membrane preparations; type: binding; settings: for Max. Stability (maximum stabilization factor): estimated upper plateau of sigmoidal response curve: how many folds the off-rate of bound radioligand from SERT can be attenuated, N/A = No activity
Protocol: Dulbecco's modified Eagle's medium, fetal bovine serum, trypsin, and penicillin/streptomycin were purchased from Invitrogen. Cell culture flasks were from NUNC. MicroScint-20 scintillation mixture was from Packard. [^3H]-Citalopram (85 Ci/mmol) was a gift from H. Lundbeck A/S (Valby, Denmark). Fugene-6 transfection reagent was from Roche Molecular Biochemicals. All chemicals are commercially available. Stock solutions of the allosteric ligands were prepared as 100 mM in EtOH.
The pcDNA3 plasmid vector containing the hSERT gene was used for transfection.
17.5 μl Fugene-6 (Roche Molecular Biochemicals) were mixed with 280 μl Dulbecco's modified Eagle's medium, and incubated at room temperature for 5 minutes. 10 μg of hSERT plasmid were added and the mixture was further incubated at least 15 minutes. […] The cells were plated at 35% confluency in a 150 mm dish, and grown at 37° C. for 64 h. Prior to harvesting the dish was rinsed in PBS. Cells were harvested with a cell scraper in buffer 1 (50 mM Tris-base, 150 mM NaCl, 20 mM EDTA, pH 7.4). After centrifugation (3000 g at 4° C. for 10 mins), cells were suspended and homogenized with an IKA Ultra-Turrax from Rose Scientific Ltd (Edmonton, Alberta, Canada) for 20 s in buffer 1. Membranes were pelleted by ultracentrifugation (12 000 g at 4° C. for 15 min) and homogenization was repeated in buffer 1. Finally, after ultracentrifugation (12000 g, 4° C., 15 min) membranes were resuspended in 1 ml buffer 3 (50 mM Tris-base, 120 mM NaCl, 5 mM KCl, pH 7.4) and stored at −80° C.
Dissociation Assay with [^3H]-Citalopram and Membrane Preparations.
SERT-[^3H]-citalopram complex was formed by incubating hSERT membrane preparation and radioligand in buffer 3 during a 60 min incubation at 4° C. Radioligand was present at a concentration 10 times the Kd value. The time kinetic of dissociation was followed by adding 10 μL complex solution to 250 μL buffer 3 in 96-well plates and incubating subsequently for increasing time intervals at RT. Reactions were terminated by filtration through GF/C glass-fibre filters (Unifilter, Perkin Elmer Life Sciences), preincubated with 40 μl 0.5% polyethyleneimine, using a Pachard Bell cell harvester, and subsequently washed three times with water. Filters were soaked in 40 μl Microscint 20 scintillation liquid (Pachard Bell). Bound radioactivity was determined by direct counting of plates using a Packard Bell microplate scintillation counter. Dissociation curves were obtained by plotting residual binding vs. time of dissociation.
The concentrations of allosteric compound in the dissociation buffer range from 400-0.2 μM.
The relative off-rate is expressed as the off-rate of the radioligand at a given concentration of allosteric compound, normalized to the off-rate of radioligand in the absence of allosteric compound.
The maximum stabilization factor is defined as the estimated upper plateau of the sigmoidal response curve, and describes how many folds the off-rate of bound radioligand from SERT can be attenuated in the presence of increasing concentrations of allosteric compound in the dissociation buffer.

Balb/cJ male mice = experiment: Forced swim test (FST); type: in vivo; settings: intraperitoneally 30 min prior to FST, seven minutes scoring period
Protocol: FIGS. 5A and 5B. Effect of allosteric compound in the mouse forced swim test (FST). Drugs were dissolved in 10% β-2-hydroxy-cyclodextrine. Male BalB/c were injected intraperitoneally with 500 μl SSRI alone or in combination with allosteric compound 30 min prior to FST (n=8). Vehicle treated animals each received 500 μl 10% 13-2-hydroxy-cyclodextrine. […] FIG. 5B depicts the effect of 5 mg/(kg bodyweight) of escitalopram alone and in combination with 15 mg/(kg bodyweight) of the allosteric compound of Example 1 (denoted ALN10 in figure). […]
FST is a behavioral model widely used to assess antidepressant-like activity in mice Porsholt et al, 1978). […] The total duration of immobility within a seven minute test period, is the main parameter measured. […]
Male BalB/c were injected intraperitoneally with 500 μl SSRI alone or in combination with allosteric compound 30 min prior to the swimming session (n=6). […] Swim sessions were videofilmed and analyzed by a blind scorer using stop watch, or by analyzing software (Ethovision, Noldus). The parameter measured was amount of time spent in a state of immobility, including small movements to keep balance and head over water. […]
FIGS. 5A and 5B gives the results from the forced swim test for the compound of Example 1. […] The dose of SSRI was chosen to be the highest sub-active concentration determined. […]

[1] = concentration of allosteric compound inducing 50% attenuation of the off-rate of the radioligand from SERT, 10 μM fluoxetine in dissociation buffer, read-out: EC50

Chain of hSERT (P31645 whole entry): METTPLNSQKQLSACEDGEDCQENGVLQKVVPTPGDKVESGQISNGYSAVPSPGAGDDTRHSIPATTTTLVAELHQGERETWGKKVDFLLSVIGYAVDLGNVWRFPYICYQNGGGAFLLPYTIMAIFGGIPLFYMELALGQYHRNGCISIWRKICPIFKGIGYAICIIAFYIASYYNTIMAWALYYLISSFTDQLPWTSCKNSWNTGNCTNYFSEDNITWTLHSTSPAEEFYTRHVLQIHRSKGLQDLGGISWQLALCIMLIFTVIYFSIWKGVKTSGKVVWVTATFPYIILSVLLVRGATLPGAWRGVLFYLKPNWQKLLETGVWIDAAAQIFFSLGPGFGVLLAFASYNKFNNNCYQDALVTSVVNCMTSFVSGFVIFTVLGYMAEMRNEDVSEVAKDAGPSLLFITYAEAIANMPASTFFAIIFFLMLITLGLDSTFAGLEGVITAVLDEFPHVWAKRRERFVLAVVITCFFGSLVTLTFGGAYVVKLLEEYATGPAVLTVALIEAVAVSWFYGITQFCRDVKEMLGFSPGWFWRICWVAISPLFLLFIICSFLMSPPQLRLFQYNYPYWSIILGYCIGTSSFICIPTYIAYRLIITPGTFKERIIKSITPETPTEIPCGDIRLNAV

| EC50 (hSERT; [1]) | Max. Stability (maximum stabilization factor) (hSERT) | SMILES | immobility time in FST, combination with escitalopram (Balb/cJ male mice; 15 mg/kg allosteric compound + 5 mg/kg (subactive) escitalopram) | immobility time in FST, combination with fluoxetine (Balb/cJ male mice; 15 mg/kg allosteric compound + 5 mg/kg (subactive) fluoxetine) | EC50 (hSERT) |
| --- | --- | --- | --- | --- | --- |
| 3.3 µM | 9.1 | CCOC(=O)c1cccc2ccccc12 [Example 1, 1-Naphthoic Acid Ethyl Ester] | significantly reduced immobility time | significantly reduced immobility time |  |
| 29 µM | 7.4 | COC(=O)c1cccc2ccccc12 [Example 2, 1-Naphthoic Acid Methyl Ester] |  |  |  |
| 2.1 µM | 17 | CCCOC(=O)c1cccc2ccccc12 [Example 3, 1-Naphthoic Acid Propyl Ester] |  |  |  |
| 9.8 µM | 16 | CC(C)OC(=O)c1cccc2ccccc12 [Example 4, 1-Naphthoic Acid Isopropyl Ester] |  |  |  |
| 74 µM | 1.8 | CCNC(=O)c1cccc2ccccc12 [Example 10, 1-Naphthoic Acid Ethylamide] |  |  |  |
| 1.3 µM | 9 | CCOC(=O)n1ccc2ccccc21 [Example 24, Indole-1-Carboxylic Acid Ethyl Ester] |  |  |  |
| 34 µM | 15 | CCOC(=O)n1ccc2ccc(C)cc21 [Example 27, 6-Methyl-Indole-1-Carboxylic Acid Ethyl Ester] |  |  |  |
| 31 µM | 8.8 | CCOC(=O)n1ccc2ccc(Cl)cc21 [Example 28, 6-Chloro-Indole-1-Carboxylic Acid Ethyl Ester] |  |  |  |
| 61 µM | 5.4 | CCOC(=O)n1nnc2ccccc21 [Example 29, Benzotriazole-1-Carboxylic Acid Ethyl Ester] |  |  |  |
| 5 µM | 6 | CCOC(=O)n1cc(C)c2ccccc21 [Example 35, 3-Methyl-Indole-1-Carboxylic Acid Ethyl Ester] |  |  |  |

The next lines start with the compound.

| SMILES | EC50 (hSERT; [1]) | Max. Stability (maximum stabilization factor) (hSERT) | immobility time in FST, combination with escitalopram (Balb/cJ male mice; 15 mg/kg allosteric compound + 5 mg/kg (subactive) escitalopram) | immobility time in FST, combination with fluoxetine (Balb/cJ male mice; 15 mg/kg allosteric compound + 5 mg/kg (subactive) fluoxetine) | EC50 (hSERT) |
| --- | --- | --- | --- | --- | --- |
| O=C(OCCO)c1cccc2ccccc12 [Example 6, 1-Naphthoic Acid 2-Hydroxyethyl Ester] | 14.5 µM | 20 |  |  |  |
| C=CCOC(=O)c1cccc2ccccc12 [Example 8, 1-Naphthoic Acid 2-Propenyl Ester] | 16 µM | 11 |  |  |  |
| C#CCOC(=O)c1cccc2ccccc12 [Example 9, 1-Naphthoic Acid 2-Propynyl Ester] | 15 µM | 13 |  |  |  |
| CCCSc1cccc2ccccc12 [Example 11, 1-Propyl-Sulfanyl-1-Naphthalene] | 4.7 µM | 6.4 |  |  |  |
| CSc1cccc2ccccc12 [Example 12, Methyl-[1]Naphthyl Sulphide] | 17 µM | 10 |  |  |  |
| CCSc1cccc2ccccc12 [Example 13, Ethyl-[1]Naphthyl Sulphide] | 9.4 µM | 8.3 |  |  |  |
| CCCCSc1cccc2ccccc12 [Example 14, 1-Butyl-Sulfanyl-1-Naphthalene] | 12 µM | 3.6 |  |  |  |
| OCCSc1cccc2ccccc12 [Example 15, 2-Hydroxyethyl-1-Naphthyl Sulphide] | 4.6 µM | 10.2 |  |  |  |
| C#CCSc1cccc2ccccc12 [Example 16, 3-Ethynyl-Sulfanyl-1-Naphthalene] | 1.2 µM | 10.3 |  |  |  |
| C=CCSc1cccc2ccccc12 [Example 17] | 3.2 µM | 6.3 |  |  |  |
| CCCOc1cccc2ccccc12 [Example 21, 1-Propoxy-Naphthalene] | 46 µM | 3.9 |  |  |  |
| O=C(OC1CCCC1)c1cccc2ccccc12 [Example 32, 1-Naphthoic Acid Cyclopentyl Ester] | 9.6 µM | 10 |  |  |  |
| Sc1cccc2ccccc12 [reference compound] | > 1000 µM |  |  |  |  |
| CCOS(=O)(=O)c1cccc2ccccc12 [reference compound] |  | 3.1 |  |  | 120 µM |
